The target in series [1] is T1, Glutamine synthetase (GS) (Mus musculus, UniProt P15105).
T1 construct: gene Glul; pET-24a(+) plasmid pNG189, codon optimised; E. coli BL21(DE3); HisTrap and Superdex 200; homomeric decamer
The series is described as follows: gamma-glutamyl hydroxamate assay, absorbance […] nm. The format is biochemical.

Series [2] concerns the target T2, Glutamine synthetase (GS) (Mus musculus, UniProt P15105, T301A).
T2 construct: gene Glul; pET-24a(+) plasmid pNG189, codon optimised; E. coli BL21(DE3); HisTrap and Superdex 200; homomeric decamer
The series is described as follows: gamma-glutamyl hydroxamate assay, absorbance […] nm. Type of series: biochemical.

Series [3] has as its target T3, Glutamine synthetase (GS) (Mus musculus, UniProt P15105, T301E).
T3 construct: gene Glul; pET-24a(+) plasmid pNG189, codon optimised; E. coli BL21(DE3); HisTrap and Superdex 200; homomeric decamer
The series is described as follows: gamma-glutamyl hydroxamate assay, absorbance […] nm. The format is biochemical.

Series [4] addresses T4, Glutamine synthetase (GS) (Mus musculus, UniProt P15105, T301V).
T4 construct: gene Glul; pET-24a(+) plasmid pNG189, codon optimised; E. coli BL21(DE3); HisTrap and Superdex 200; homomeric decamer
The series is described as follows: gamma-glutamyl hydroxamate assay, absorbance […] nm. Type of series: biochemical.

In series [5] the target is T1, Glutamine synthetase (GS). The experiment in a line: thermal shift (SyproOrange differential scanning fluorimetry). Type of series: binding. The note with it: varying MgCl2 and ATP; HEPES pH 7.5, 300 mM NaCl, 10% glycerol, 500 μM TCEP.
Substrate in series [6]: N[C@@H](CCC(=O)O)C(=O)O
The experiment in a line: purified protein. The format is biochemical, Mus musculus. The note with it: unphosphorylated GS (PKA + PKI), 20 mM ATP, 20 mM hydroxylamine, 20 mM MgCl2, imidazole pH 7.4, room temperature.

T4 sequence (P15105 2-373 T301V): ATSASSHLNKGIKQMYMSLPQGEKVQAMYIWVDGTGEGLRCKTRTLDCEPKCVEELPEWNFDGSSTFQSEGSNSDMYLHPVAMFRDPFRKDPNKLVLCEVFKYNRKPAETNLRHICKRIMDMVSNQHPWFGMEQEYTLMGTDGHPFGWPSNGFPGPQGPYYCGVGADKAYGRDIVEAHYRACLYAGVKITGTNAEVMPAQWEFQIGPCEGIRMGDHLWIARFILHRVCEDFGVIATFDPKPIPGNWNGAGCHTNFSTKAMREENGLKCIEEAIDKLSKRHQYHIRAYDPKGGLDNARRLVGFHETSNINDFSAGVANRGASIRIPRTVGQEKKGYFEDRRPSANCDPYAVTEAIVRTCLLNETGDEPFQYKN
T2 sequence (P15105 2-373 T301A): as the sequence (P15105 2-373 T301V) above, with V300A counted along it
T3 sequence (P15105 2-373 T301E): as the sequence (P15105 2-373 T301V) above, with V300E counted along it

Consider `CS(=N)(=O)CC[C@H](N)C(=O)O` (stereo partly drawn) [methionine sulfoximine], for which the IC50 (as a rule, the midpoint of a concentration-inhibition curve) in series [1] was 0.182 ± 0.014 mM; in series [2], more than 100 mM; in series [3], more than 100 mM; in series [4], 7.6 ± 0.5 mM.

Regarding `Nc1ncnc2c1ncn2[C@@H]1O[C@H](COP(=O)(O)OP(=O)(O)OP(=O)(O)O)[C@@H](O)[C@H]1O` [ATP], the Tm result in series [5] is recorded as “incubation with MgATP increased their melting temperatures to similar extents”.

B1: Glutamine synthetase (GS) (Mus musculus) (protein)
chain: ATSASSHLNKGIKQMYMSLPQGEKVQAMYIWVDGTGEGLRCKTRTLDCEPKCVEELPEWNFDGSSTFQSEGSNSDMYLHPVAMFRDPFRKDPNKLVLCEVFKYNRKPAETNLRHICKRIMDMVSNQHPWFGMEQEYTLMGTDGHPFGWPSNGFPGPQGPYYCGVGADKAYGRDIVEAHYRACLYAGVKITGTNAEVMPAQWEFQIGPCEGIRMGDHLWIARFILHRVCEDFGVIATFDPKPIPGNWNGAGCHTNFSTKAMREENGLKCIEEAIDKLSKRHQYHIRAYDPKGGLDNARRLTGFHETSNINDFSAGVANRGASIRIPRTVGQEKKGYFEDRRPSANCDPYAVTEAIVRTCLLNETGDEPFQYKN
notes: pET-24a(+) plasmid pNG189, codon optimised; E. coli BL21(DE3); HisTrap and Superdex 200; homomeric decamer
As to B1, the Km (commonly the substrate concentration at which the rate is half of its maximum) in series [6] was determined as 21 ± 1 mM.

Values taken from paper PMC6536897, “Phosphorylation of Glutamine Synthetase on Threonine 301 Contributes to Its Inactivation During Epilepsy” (Frontiers in Molecular Neuroscience, 2019).
